Experimental data reported in US20050203127A1, “2-(Phenyl)-2h-pyrazole-3-carboxylic acid-n-4-(thioxo-heterocyclyl)-phenyl-amide derivatives and corresponding imino-heterocyclyl derivatives and relates compounds for use as inhibitors of the coagulation factors xa and/or viia for treating thromboses” (priority 2002, published 2005).

Legend:
factor Xa = factor Xa (Homo sapiens, UniProt P00742); assay: Factor Xa inhibition (FXa-IC50); format: biochemical
From the text: The inhibition of factor Xa by the compounds according to the invention and the measurement of the anticoagulant and antithrombotic activity can be determined by conventional in-vitro or in-vivo methods. A suitable method is described, for example, by J. Hauptmann et al. in Thrombosis and Haemostasis 1990, 63, 220-223.
The inhibition of factor Xa can be measured, for example by the method of T. Hara et al. in Thromb. Haemostas. 1994, 71, 314-319.

TF/FVIIa = TF/FVIIa (Homo sapiens, UniProt P08709); assay: TF/factor VIIa inhibition (TF/FVIIa-IC50); format: biochemical
From the text: The inhibition of factor VIIa by the compounds according to the invention and the measurement of the anticoagulant and antithrombotic activity can be determined by conventional in-vitro or in-vivo methods. A conventional method for the measurement of the inhibition of factor VIIa is described, for example, by H. F. Ronning et al. in Thrombosis Research 1996, 84, 73-81.

Chain of TF/FVIIa (P08709 213-466 limits assumed): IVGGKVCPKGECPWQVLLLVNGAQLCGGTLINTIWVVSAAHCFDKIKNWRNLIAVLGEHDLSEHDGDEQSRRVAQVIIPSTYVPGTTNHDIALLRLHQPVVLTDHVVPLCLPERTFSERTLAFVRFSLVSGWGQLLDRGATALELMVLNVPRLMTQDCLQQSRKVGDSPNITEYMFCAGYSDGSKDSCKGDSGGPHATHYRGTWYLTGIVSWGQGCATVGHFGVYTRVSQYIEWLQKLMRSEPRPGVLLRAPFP
Chain of TF/FVIIa (P08709 61-212 limits assumed): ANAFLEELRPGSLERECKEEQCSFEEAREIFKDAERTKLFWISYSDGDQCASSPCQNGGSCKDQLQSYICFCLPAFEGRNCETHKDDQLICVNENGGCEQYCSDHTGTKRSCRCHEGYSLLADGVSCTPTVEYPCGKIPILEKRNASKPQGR
Chain of TF/FVIIa (P13726 33-295 partner): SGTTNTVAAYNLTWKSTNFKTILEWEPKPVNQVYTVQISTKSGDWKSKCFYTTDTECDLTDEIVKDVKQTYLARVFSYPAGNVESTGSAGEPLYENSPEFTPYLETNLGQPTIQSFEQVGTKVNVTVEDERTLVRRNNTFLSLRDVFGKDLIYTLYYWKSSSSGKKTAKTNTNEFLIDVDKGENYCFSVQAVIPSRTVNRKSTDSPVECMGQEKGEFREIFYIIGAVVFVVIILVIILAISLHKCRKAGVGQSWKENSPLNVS
Chain of factor Xa (P00742 235-488 limits assumed): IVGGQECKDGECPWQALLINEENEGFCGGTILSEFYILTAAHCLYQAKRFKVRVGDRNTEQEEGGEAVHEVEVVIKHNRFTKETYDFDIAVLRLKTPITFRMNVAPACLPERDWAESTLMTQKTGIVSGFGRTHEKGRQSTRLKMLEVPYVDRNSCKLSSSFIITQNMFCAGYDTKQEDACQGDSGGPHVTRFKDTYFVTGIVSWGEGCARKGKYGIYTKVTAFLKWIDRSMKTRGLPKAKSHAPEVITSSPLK
Chain of factor Xa (P00742 41-179 limits assumed): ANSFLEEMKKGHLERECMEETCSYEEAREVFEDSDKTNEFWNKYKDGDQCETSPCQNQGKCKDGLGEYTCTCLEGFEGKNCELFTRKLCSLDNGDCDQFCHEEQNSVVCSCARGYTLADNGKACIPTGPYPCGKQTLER

Question: With `N=C1CCCN1c1ccc(NC(=O)c2cc(C(F)(F)F)nn2-c2cccc(CN)c2)cc1` [AA, N-[4-(2-iminopyrrolidin-1-yl)phenyl]-2-(3-aminomethylphenyl)-5-trifluoromethyl-2H-pyrazole-3-carboxamide] as the molecule, how does the IC50 (factor Xa) read?
Answer: Its IC50 is 0.0096 µM.

Question: And the IC50 (TF/FVIIa)?
Answer: The IC50 was 0.023 µM.

Question: Which results are given for `NC(=O)c1cccc(-n2nc(C(F)(F)F)cc2C(=O)Nc2ccc(N3CCCC3=S)c(Cl)c2)c1` [BB, N-[3-chloro-4-(2-thioxopyrrolidin-1-yl)phenyl]-2-(3-aminocarbonylphenyl)-5-trifluoromethyl-2H-pyrazole-3-carboxamide]?
Answer: IC50 (factor Xa): 0.33 µM; IC50 (TF/FVIIa): 0.18 µM

Question: For `N#CN=C1NCCN1c1ccc(NC(=O)c2cc(C(F)(F)F)nn2-c2cccc(C(N)=O)c2)cc1` [CA, N-[4-(2-cyanoiminoimidazolidin-1-yl)phenyl]-2-(3-aminocarbonylphenyl)-5-trifluoromethyl-2H-pyrazole-3-carboxamide], which IC50 (factor Xa) is on record?
Answer: The IC50 was 0.2 µM.

Question: And the IC50 (TF/FVIIa)?
Answer: The IC50 was 0.069 µM.

Question: For `CCc1nn(-c2ccc(NC(=O)c3cc(C(F)(F)F)nn3-c3cccc(C(N)=O)c3)cc2)c(=N)s1` [CB, N-[4-(2-imino-5-ethyl-3H-1,3,4-thiadiazol-3-yl)phenyl]-2-(3-aminocarbonylphenyl)-5-trifluoromethyl-2H-pyrazole-3-carboxamide], which IC50 (factor Xa) is on record?
Answer: The IC50 was 0.092 µM.

Question: What about the IC50 (TF/FVIIa) of the same molecule?
Answer: Its IC50 is 0.15 µM.
